US12325867B2, “Organoid produced using carrier for cell culture, and method for evaluating drug toxicity using same” (Korea Research Institute of Chemical Technology, priority 2018, dated 2025)

System: artificial myocardial structure (cardiac organoid)
Test: contractile force-based cardiac toxicity assessment using the artificial myocardial structure
Type: cell-based, human
Source text: Furthermore, after additionally treating an artificial myocardial structure prepared by coculturing gelatin oil capsules and cardiomyocytes with various drugs, contractile forces of the drug-treated artificial myocardial structure were checked.

Compound | beat rates (group treated with 10 nM) | contractile forces (group treated with 10 nM) | beat rates (group treated with 125 nM)
CC(C)NCC(O)c1ccc(O)c(O)c1 (stereo not drawn) [Isopreterenol] | accelerated | changed strongly | –
COc1ccc(CCN(C)CCCC(C#N)(c2ccc(OC)c(OC)c2)C(C)C)cc1OC (stereo not drawn) [verapamil] | – | – | slow down and become somewhat irregular
